Literature values in patent publication EP4699692A1, “ACIDIC GAS ADSORBENT, STRUCTURE COMPRISING ACIDIC GAS ADSORBENT, ACIDIC GAS ADSORPTION DEVICE, AND ACIDIC GAS ADSORBENT PRODUCTION METHOD” (Nitto Denko Corporation, priority 2023, dated 2024).

What was measured:
[1] = amine monomer
[2] = amine monomer; remark: listed apart in the source
[3] = amine monomer; regulatory class
[4] = amine monomer; regulatory class; remark: listed apart in the source

Structure (SMILES): NCCNCCNCCN [TETA, triethylenetetramine]
- Mutagenicity test (Ames test) [1]: Positive
- Skin irritation test (rabbit) [2]: Strong irritant
- Fire Service Act [3]: Hazardous material category IV class III petroleums
- Poisonous and Deleterious Substances Control Act [4]: Deleterious substance
